{"source": "patent US5886162A", "about": "“Lipophilic diakylaminomethylene prodrug derivatives for the inhibition of replication of viruses” (Research Foundation of State University of New York, priority 1991, dated 1999)", "key": {"[1]": {"assay": "Reverse phase HPLC retention time comparison (lipophilicity)", "format": "physicochemical", "settings": "measure of lipophilicity", "excerpt": "A series of compounds were produced in accord with the method of Example 1 with various substitutions of 2' deoxycytidine at the N^4 position of the dialkylaminomethylene side chain.\nBecause of economic considerations 2'-deoxycytidine, was used as the parent nucleoside for comparison purposes in this study."}, "[2]": {"tested_on": "viral replication", "settings": "background; cited from earlier work"}, "[3]": {"assay": "Rate of hydrolysis in phosphate buffer by UV spectroscopy and HPLC", "format": "physicochemical", "settings": "10 mM K-phosphate buffer, pH 7.4, read-out: half-life (t1/2) of hydrolysis (converted)", "method": "The rates of hydrolysis of the different derivatives appear to depend greatly on the structure of the substituent introduced at the exocyclic NH2 group. For example, the half-life (t1/2) of N^4 -dimethylaminomethylene […] (compound 3 in Table 1) is 5 hours at 37° in 10 mM K-phosphate buffer at pH 7.4, as determined by UV spectroscopy and HPLC analysis. Under the same conditions, N^4 -diisopropylamino-methylene-2'-deoxycytidine (compound 7 in Table 1) has a t1/2 =3 days. Thus, there is an order of magnitude difference in the rate of hydrolysis of these two side chains. The variations in the susceptibility to hydrolysis provide another parameter for the optimization of the pharmacokinetic profile."}, "[4]": {"settings": "cited from earlier work"}, "[5]": {"tested_on": "human immunodeficiency virus (HIV-1, strain LAV)", "assay": "NCI in vitro anti-HIV drug screen, antiviral activity", "format": "cell-based", "settings": "for activity against human immunodeficiency virus: HIV-1, strain LAV, NCI In-Vitro Testing Program", "method": "(§1) The protocol used in NCI's Developmental Therapeutics Program AIDS antiviral drug screening program involves plating of susceptible human \"host\" cells with and without virus in microculture plates, adding various concentrations of test material, incubating the plates for seven days (during which time infected, non-drug treated control cells are largely or totally destroyed by the virus), and then determining the number of remaining viable cells using a calorimetric endpoint. The dose dependent antiviral activity and cytotoxicity were determined and plotted on a graph illustrated as FIG. 1.\n(§2) Two parameters are extracted from the curves illustrated in FIG. 1: the EC50, representing the concentration of drug that results in a 50% reduction of the viral cytopathic effect; and the IC50, representing the concentration of drug resulting in 50% cytotoxicity (growth inhibition derived from the normal, uninfected cultures). An in-vitro therapeutic index (TI) may be calculated as the ratio (IC50 /EC50)if both values are obtained."}, "[6]": {"tested_on": "HIV", "assay": "NCI in vitro anti-HIV drug screen, protection of CEM cells against HIV", "format": "cell-based", "settings": "Human immunodeficiency virus 1, CCRF-CEM, 168 h; CEM cell line; read-out: concentration giving complete protection against HIV", "method": "as §1, §2"}, "[7]": {"assay": "NCI in vitro anti-HIV drug screen, cytotoxicity, CEM cells", "format": "cell-based, human", "settings": "human, cem cells, CEM, read-out: IC50 (cytotoxicity)", "method": "as §1, §2"}, "[8]": {"tested_on": "CEM", "assay": "NCI in vitro anti-HIV drug screen, cytotoxicity, CEM cells", "format": "cell-based, human", "settings": "CEM cell line, 8 micromolar", "method": "as §1, §2"}, "[9]": {"assay": "NCI in vitro anti-HIV drug screen, cytotoxicity, ATH8 cells", "format": "cell-based", "settings": "human, ATH8, test of 9-08-87, uninfected cultures, seven days, read-out: IC50 (cytotoxicity)", "method": "as §1, §2"}, "[10]": {"assay": "NCI in vitro anti-HIV drug screen, cytotoxicity, C3-44 cells", "format": "cell-based", "settings": "human, C3-44, tests of 3-15-88 and 3-16-88, uninfected cultures, seven days, read-out: IC50 (cytotoxicity)", "method": "as §1, §2"}, "[11]": {"assay": "NCI in vitro anti-HIV drug screen, cytotoxicity, LDV-7 cells", "format": "cell-based", "settings": "human, LDV-7, tests of 3-15-88, 3-16-88, 3-25-88, uninfected cultures, seven days, read-out: IC50 (cytotoxicity)", "method": "as §1, §2"}, "[12]": {"assay": "NCI in vitro anti-HIV drug screen, cytotoxicity, MT-2 cells", "format": "cell-based", "settings": "human, MT-2, tests of 1-29-88 and 3-25-88, uninfected cultures, seven days, read-out: IC50 (cytotoxicity)", "method": "as §1, §2"}, "[13]": {"assay": "NCI in vitro anti-HIV drug screen, cytotoxicity, five different cell lines", "format": "cell-based, human", "settings": "human; all five different cell lines; IC50 could not be reached up to highest concentration employed; read-out: IC50 (50% cytotoxicity)", "method": "as §1, §2"}, "[14]": {"tested_on": "five different cell lines", "assay": "NCI in vitro anti-HIV drug screen, cytotoxicity, five different cell lines", "format": "cell-based, human", "settings": "all five different cell lines, up to highest concentration employed", "method": "as §1, §2"}, "[15]": {"tested_on": "viral p24 antigen", "assay": "Viral p24 antigen by enzyme-linked immunosorbent assay in CEM cells", "format": "cell-based, HIV", "settings": "FIG. 2"}}, "note": "Where “and” joins values, the source holds several entries; their conditions need not be identical. Equal entries are not always repeated. Where two headings read alike, the source gives them in different places.", "data": [{"compound": "CCCCN(C=Nc1ccn([C@H]2C[C@H](O)[C@@H](CO)O2)c(=O)n1)CCCC", "note": "[Compound 9, N^4 -Di-n-butylamino-methylene-2'-dioxycytidine]", "values": [{"measurement": "RETENTION TIME", "setting": "[1]", "value": 125, "unit": "min"}]}, {"compound": "Nc1ncnc2c1ncn2[C@H]1CC[C@@H](CO)O1", "note": "[2', 3'-dideoxyadenosine]", "values": [{"measurement": "inhibition of viral replication", "setting": "[2]", "value": "effective in inhibiting viral replication"}]}, {"compound": "CN(C)C=Nc1ccn([C@H]2C[C@H](O)[C@@H](CO)O2)c(=O)n1", "note": "[Compound 3, N^4-dimethylaminomethylene-2'-deoxycytidine]", "values": [{"measurement": "RETENTION TIME", "setting": "[1]", "value": 3.26, "unit": "min"}, {"measurement": "half-life", "setting": "[3]; 37°", "value": 5, "unit": "h"}]}, {"compound": "CC1CCCC(C)N1C=Nc1ccn([C@H]2C[C@H](O)[C@@H](CO)O2)c(=O)n1", "note": "(some centres unmarked) [Compound 8, N^4-2,6-Dimethylpiperidino-methylene-2'-deoxycytidine]", "values": [{"measurement": "RETENTION TIME", "setting": "[1]", "value": 21.81, "unit": "min"}]}, {"compound": "Nc1ccn([C@H]2C[C@H](O)[C@@H](CO)O2)c(=O)n1", "note": "[Compound 1, 2'-Deoxycytidine, reference compound]", "values": [{"measurement": "RETENTION TIME", "setting": "[1]", "value": 2.13, "unit": "min"}]}, {"compound": "Cc1cn([C@H]2C[C@H](N=[N+]=[N-])[C@@H](CO)O2)c(=O)[nH]c1=O", "note": "[AZT]", "values": [{"measurement": "half-life", "setting": "[4]; human, in vivo", "value": "short half-life"}, {"measurement": "therapeutic benefit", "setting": "[4]; patients with AIDS or AIDS related complex (ARC)", "value": "considerable therapeutic benefit"}, {"measurement": "bone marrow toxicity", "setting": "[4]; patients, ddC compared to AZT, Phase I and II trials", "value": "severe bone marrow toxicity"}]}, {"compound": "CN(C)C=Nc1ccn([C@H]2C[C@H](F)[C@@H](CO)O2)c(=O)n1", "note": "[DDFC, N^4-dimethylaminomethylene-2', 3'-dideoxy-3'-fluorocytidine]", "values": [{"measurement": "antiviral activity in several cell lines", "setting": "[5]; FIG. 1, several cell lines", "value": "significant antiviral activity"}, {"measurement": "activity against human immunodeficiency virus", "setting": "[5]", "value": "Significant activity"}, {"measurement": "EC100", "setting": "[6]", "value": 8, "unit": "µM"}, {"measurement": "CC50 at 168 h", "setting": "[7]; test of 1-23-88, highest concentration tested", "value": "> 200 nM and > 0.055 µg/mL"}, {"measurement": "CC50 at 168 h", "setting": "[7]; tests of 1-13-88, 3-15-88, 3-25-88, 3-16-88, uninfected cultures, seven days", "value": "> 200 µM and > 56 µg/mL"}, {"measurement": "cytotoxicity at the concentration of complete protection", "setting": "[8]", "value": "without any cytotoxicity"}, {"measurement": "CC50 at 168 h", "setting": "[9]", "value": "> 200 µM and > 56 µg/mL"}, {"measurement": "CC50 at 168 h", "setting": "[10]", "value": "> 200 µM and > 56 µg/mL"}, {"measurement": "CC50 at 168 h", "setting": "[11]", "value": "> 200 µM and > 56 µg/mL"}, {"measurement": "CC50 at 168 h", "setting": "[12]", "value": "> 200 µM and > 56 µg/mL"}, {"measurement": "CC50 at 168 h", "setting": "[13]", "value": "> 200", "unit": "µM"}, {"measurement": "cytotoxicity observed", "setting": "[14]", "value": "uniformly very little cytotoxicity"}, {"measurement": "correlation of protection against cytopathic effect of HIV with p24 antigen", "setting": "[15]", "value": "correlated with the decrease in the presence of viral p24 antigen"}]}, {"compound": "O=c1nc(N=CN2CCOCC2)ccn1[C@H]1C[C@H](O)[C@@H](CO)O1", "note": "[Compound 2, N^4 -Morpholinomethylene-2'-deoxycytidine]", "values": [{"measurement": "RETENTION TIME", "setting": "[1]", "value": 3.07, "unit": "min"}]}, {"compound": "Nc1ccn([C@H]2CC[C@@H](CO)O2)c(=O)n1", "note": "[ddC, 2', 3'-dideoxycytidine]", "values": [{"measurement": "inhibition of viral replication", "setting": "[2]", "value": "effective in inhibiting viral replication"}, {"measurement": "dose limiting toxicity", "setting": "[4]; Phase I and II trials", "value": "peripheral neuropathy"}, {"measurement": "bone marrow toxicity", "setting": "[4]; human, in vivo", "value": "much less bone marrow suppression"}]}, {"compound": "O=c1nc(N=CN2CCCC2)ccn1[C@H]1C[C@H](O)[C@@H](CO)O1", "note": "[Compound 4, N^4 -Pyrrolidinomethylene-2'-deoxycytidine]", "values": [{"measurement": "RETENTION TIME", "setting": "[1]", "value": 5.16, "unit": "min"}]}, {"compound": "CC(C)N(C=Nc1ccn([C@H]2C[C@H](O)[C@@H](CO)O2)c(=O)n1)C(C)C", "note": "[Compound 7, N^4 -Diisopropylamino-methylene-2'-deoxycytidine]", "values": [{"measurement": "half-life", "setting": "[3]; same conditions: 37°", "value": 72, "unit": "h"}]}, {"compound": "CCN(C=Nc1ccn([C@H]2C[C@H](O)[C@@H](CO)O2)c(=O)n1)CC", "note": "[Compound 5, N^4 -Diethylaminomethylene-2'-deoxycytidine]", "values": [{"measurement": "RETENTION TIME", "setting": "[1]", "value": 6.44, "unit": "min"}]}, {"compound": "CN(C)C=Nc1ccn([C@H]2CC[C@@H](CO)O2)c(=O)n1", "note": "[DAM-ddC, N^4-dimethylaminomethylene-2', 3'-dideoxycytidine]", "values": [{"measurement": "activity against human immunodeficiency virus", "setting": "[5]", "value": "Significant activity"}, {"measurement": "antiviral activity", "setting": "[5]; anti-HIV drug screen, FIG. 3", "value": "significant antiviral activity"}]}, {"compound": "O=c1nc(N=CN2CCCCC2)ccn1[C@H]1C[C@H](O)[C@@H](CO)O1", "note": "[Compound 6, N^4 -Piperidinomethylene-2' deoxycytidine]", "values": [{"measurement": "RETENTION TIME", "setting": "[1]", "value": 7.79, "unit": "min"}]}]}
